Experimental data from ChEMBL document CHEMBL3217555, “Potent and selective inhibitors of human peptidylglycine -amidating monooxygenase” (Medchemcomm, 2011).
Where a SMILES comes first, the peptide text is derived from it.

What was measured:
Xenopus laevis = species on record: Xenopus laevis; assay: (§1) Competitive binding affinity to Xenopus laevis PAM using (R)-Tyr-(S)-ValGly as substrate after 1 hr by HPLC analysis
[1] = molecular target: T1, Peptidyl-glycine alpha-amidating monooxygenase (Homo sapiens, UniProt P19021); assay: Competitive binding affinity to PAM extracted from human DMS53 cells using (R)-Tyr-(S)-ValGly as substrate after 2 hrs by HPLC analysis; parameters: species or system DMS-53
T1 sequence (P19021 whole entry): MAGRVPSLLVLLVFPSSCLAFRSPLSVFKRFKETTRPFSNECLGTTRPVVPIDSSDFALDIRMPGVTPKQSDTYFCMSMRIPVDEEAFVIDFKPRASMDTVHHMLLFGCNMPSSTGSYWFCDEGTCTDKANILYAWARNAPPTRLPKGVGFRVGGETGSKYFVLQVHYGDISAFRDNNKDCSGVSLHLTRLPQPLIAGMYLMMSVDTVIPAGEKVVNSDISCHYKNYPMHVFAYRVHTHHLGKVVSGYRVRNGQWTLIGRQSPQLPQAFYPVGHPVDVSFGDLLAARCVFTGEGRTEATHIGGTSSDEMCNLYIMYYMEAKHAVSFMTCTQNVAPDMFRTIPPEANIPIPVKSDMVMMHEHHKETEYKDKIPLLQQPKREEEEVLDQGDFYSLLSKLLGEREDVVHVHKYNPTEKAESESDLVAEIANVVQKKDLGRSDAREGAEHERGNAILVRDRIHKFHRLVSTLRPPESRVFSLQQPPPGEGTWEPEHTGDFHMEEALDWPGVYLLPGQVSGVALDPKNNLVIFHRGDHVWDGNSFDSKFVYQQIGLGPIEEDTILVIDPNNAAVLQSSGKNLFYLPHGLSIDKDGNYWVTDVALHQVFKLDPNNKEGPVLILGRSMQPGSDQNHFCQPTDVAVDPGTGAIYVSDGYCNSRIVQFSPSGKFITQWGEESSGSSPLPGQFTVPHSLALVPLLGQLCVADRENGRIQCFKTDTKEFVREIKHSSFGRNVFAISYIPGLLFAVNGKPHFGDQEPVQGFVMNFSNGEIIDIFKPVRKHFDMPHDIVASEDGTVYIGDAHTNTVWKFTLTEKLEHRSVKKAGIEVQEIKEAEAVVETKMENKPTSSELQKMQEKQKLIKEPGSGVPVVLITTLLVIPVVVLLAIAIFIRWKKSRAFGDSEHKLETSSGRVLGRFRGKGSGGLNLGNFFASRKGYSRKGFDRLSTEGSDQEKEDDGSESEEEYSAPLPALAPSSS

[2] = molecular target: T1, Peptidyl-glycine alpha-amidating monooxygenase; assay: Competitive binding affinity to PAM secreted from human DMS53 cells using (R)-Tyr-(S)-ValGly as substrate after 2 hrs by HPLC analysis; parameters: species or system DMS-53
[3] = as §1
[4] = molecular target: T1, Peptidyl-glycine alpha-amidating monooxygenase; assay: (§2) Competitive binding affinity to PAM extracted from human H889 cells using (R)-Tyr-(S)-ValGly as substrate after 2 hrs by HPLC analysis
[5] = molecular target: T1, Peptidyl-glycine alpha-amidating monooxygenase; assay: Competitive inhibition of PAM secreted from human PC3 cells by Dixon plot analysis; format: cell-based, PC-3
[6] = molecular target: T1, Peptidyl-glycine alpha-amidating monooxygenase; assay: Competitive binding affinity to PAM extracted from human PC3 cells using (R)-Tyr-(S)-ValGly as substrate after 2 hrs by HPLC analysis; parameters: species or system PC-3
[7] = molecular target: T1, Peptidyl-glycine alpha-amidating monooxygenase; assay: Competitive binding affinity to PAM secreted from human SW1783 cells using (R)-Tyr-(S)-ValGly as substrate after 2 hrs by HPLC analysis
H889 = assay: Selectivity ratio of IC50 for Xenopus laevis PAM to IC50 for PAM extracted from human H889 cells; format: cell-based
[8] = molecular target: T2, Peptidyl-glycine alpha-amidating monooxygenase (Homo sapiens) (UniProt P19021); assay: Potency index, ratio of Procalcitonin Km(app) to compound IC50 for PAM extracted from human DMS53 cells; format: cell-based; conditions: DMS-53
T2 sequence (whole entry): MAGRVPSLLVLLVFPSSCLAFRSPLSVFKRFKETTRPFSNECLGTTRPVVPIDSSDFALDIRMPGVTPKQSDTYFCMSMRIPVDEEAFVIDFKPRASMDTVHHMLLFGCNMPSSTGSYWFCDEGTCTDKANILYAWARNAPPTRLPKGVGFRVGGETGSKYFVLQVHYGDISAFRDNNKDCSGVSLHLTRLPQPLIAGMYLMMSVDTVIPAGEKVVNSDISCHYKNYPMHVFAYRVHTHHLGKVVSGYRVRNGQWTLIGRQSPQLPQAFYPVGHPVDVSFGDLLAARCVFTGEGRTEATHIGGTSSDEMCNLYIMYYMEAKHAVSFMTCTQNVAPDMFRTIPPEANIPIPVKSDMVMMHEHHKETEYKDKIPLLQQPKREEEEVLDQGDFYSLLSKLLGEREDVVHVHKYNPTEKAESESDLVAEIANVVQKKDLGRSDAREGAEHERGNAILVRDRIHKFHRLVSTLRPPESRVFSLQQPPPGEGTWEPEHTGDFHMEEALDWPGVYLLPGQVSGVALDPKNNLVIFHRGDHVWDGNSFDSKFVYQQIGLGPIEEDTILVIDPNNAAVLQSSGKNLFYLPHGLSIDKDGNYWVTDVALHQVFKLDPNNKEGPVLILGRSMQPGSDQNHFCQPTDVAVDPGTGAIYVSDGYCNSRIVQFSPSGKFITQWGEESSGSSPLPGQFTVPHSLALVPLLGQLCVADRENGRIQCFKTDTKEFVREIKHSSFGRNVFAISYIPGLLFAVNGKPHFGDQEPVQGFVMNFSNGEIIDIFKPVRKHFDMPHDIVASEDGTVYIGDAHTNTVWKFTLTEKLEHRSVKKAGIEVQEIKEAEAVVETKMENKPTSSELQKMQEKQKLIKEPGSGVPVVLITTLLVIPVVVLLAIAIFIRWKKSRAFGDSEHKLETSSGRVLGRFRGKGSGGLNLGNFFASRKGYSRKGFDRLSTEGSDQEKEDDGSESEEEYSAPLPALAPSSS

[9] = molecular target: T2, Peptidyl-glycine alpha-amidating monooxygenase (Homo sapiens); assay: Potency index, ratio of Procalcitonin Km(app) to compound IC50 for PAM extracted from human H889 cells; format: cell-based
[10] = substrate: CC(=O)N[C@@H](Cc1ccccc1)C(=O)NCC(=O)O; assay: as §2
[11] = substrate: O=C(O)CNC(=O)Cc1ccccc1; assay: as §2
[12] = molecular target: Peptidyl-glycine alpha-amidating monooxygenase (Homo sapiens) (UniProt P19021); assay: Competitive binding affinity to PAM extracted from human H889 cells using (R)-Tyr-(S)-ValGly as substrate after 2 hrs by HPLC analysis

Question: Which Km (Xenopus laevis) does the source give for `CCCCCCCCCC(=O)NCC(=O)O` here?
Answer: The Km was 440 µM.

Question: And the IC50 [1]?
Answer: The IC50 was 30 µM.

Question: What about the IC50 [2] of the same molecule?
Answer: The IC50 was 110 µM.

Question: Which IC50 [3] does the source give for `CC(=O)N[C@@H](Cc1ccccc1)C(=O)SCC(=O)O` here?
Answer: The IC50 was 25 µM.

Question: What about the IC50 [4] of the same molecule?
Answer: Its IC50 is 45 µM.

Question: With `CC(=O)N[C@@H](Cc1ccccc1)C(=O)NCC(=O)O` (Ac-Phe-Gly-OH) as the molecule, how does the Km (Xenopus laevis) read?
Answer: Its Km is 170 µM.

Question: For `CCCCCCCC(=O)OCC(=O)O`, which IC50 [3] is on record?
Answer: The IC50 was 250 µM.

Question: With `CC(=O)N[C@@H](CC(C)C)C(=O)SCC(=O)O` as the molecule, how does the IC50 [3] read?
Answer: Its IC50 is 260 µM.

Question: Which IC50 [3] does the source give for `CCCCCCCCCCCCCC(=O)OCC(=O)O` here?
Answer: The IC50 was 30 µM.

Question: For `O=C(O)COC(=O)c1ccccc1`, which IC50 [3] is on record?
Answer: Its IC50 is 250 µM.

Question: Which Ki [5] does the source give for `O=C(O)C/C=C/c1ccccc1` here?
Answer: Its Ki is 0.096 µM.

Question: With `O=C(O)CSC(=O)Cc1ccccc1` as the molecule, how does the IC50 [3] read?
Answer: Its IC50 is 20 µM.

Question: And the IC50 [4]?
Answer: The IC50 was 45 µM.

Question: For `CCCCCC(=O)OCC(=O)O`, which IC50 [3] is on record?
Answer: The IC50 was 780 µM.

Question: For `CCCCCCCCCC(=O)OCC(=O)O`, which IC50 [3] is on record?
Answer: The IC50 was 40 µM.

Question: And the IC50 [4]?
Answer: Its IC50 is 0.05 µM.

Question: And the IC50 [1]?
Answer: Its IC50 is 0.04 µM.

Question: And the IC50 [2]?
Answer: The IC50 was 30 µM.

Question: And the IC50 [6]?
Answer: Its IC50 is 0.12 µM.

Question: What about the IC50 [7] of the same molecule?
Answer: Its IC50 is 30 µM.

Question: What about the Ratio IC50 (H889) of the same molecule?
Answer: Its Ratio IC50 is 800.

Question: What about the Ratio [8] of the same molecule?
Answer: The Ratio was 5000.

Question: And the Ratio [9]?
Answer: The Ratio was 6000.

Question: For `O=C(O)CNC(=O)Cc1ccccc1`, which Km (Xenopus laevis) is on record?
Answer: The Km was 440 µM.

Question: For `CCCCCCCCCCCC(=O)OCC(=O)O`, which IC50 [3] is on record?
Answer: The IC50 was 35 µM.

Question: What about the IC50 [4] of the same molecule?
Answer: Its IC50 is 0.06 µM.

Question: With `CSCC[C@H](NC(C)=O)C(=O)SCC(=O)O` as the molecule, how does the IC50 [3] read?
Answer: Its IC50 is 50 µM.

Question: With `O=C(O)CSC(=O)c1ccccc1` as the molecule, how does the IC50 [3] read?
Answer: Its IC50 is 150 µM.

Question: For `O=C(O)COC(=O)Cc1ccccc1`, which IC50 [3] is on record?
Answer: The IC50 was 510 µM.

Question: And the IC50 [4]?
Answer: The IC50 was 2 µM.

Question: And the Ratio IC50 (H889)?
Answer: The Ratio IC50 was > 250.

Question: For `CC(=O)N[C@@H](Cc1ccccc1)C(=O)OCC(=O)O`, which IC50 [3] is on record?
Answer: The IC50 was > 2000 µM.

Question: For `CCCCCCCCCC(=O)SCC(=O)O`, which IC50 [3] is on record?
Answer: The IC50 was 9 µM.

B1: Peptidyl-glycine alpha-amidating monooxygenase (Homo sapiens), P19021 (protein)
chain: MAGRVPSLLVLLVFPSSCLAFRSPLSVFKRFKETTRPFSNECLGTTRPVVPIDSSDFALDIRMPGVTPKQSDTYFCMSMRIPVDEEAFVIDFKPRASMDTVHHMLLFGCNMPSSTGSYWFCDEGTCTDKANILYAWARNAPPTRLPKGVGFRVGGETGSKYFVLQVHYGDISAFRDNNKDCSGVSLHLTRLPQPLIAGMYLMMSVDTVIPAGEKVVNSDISCHYKNYPMHVFAYRVHTHHLGKVVSGYRVRNGQWTLIGRQSPQLPQAFYPVGHPVDVSFGDLLAARCVFTGEGRTEATHIGGTSSDEMCNLYIMYYMEAKHAVSFMTCTQNVAPDMFRTIPPEANIPIPVKSDMVMMHEHHKETEYKDKIPLLQQPKREEEEVLDQGDFYSLLSKLLGEREDVVHVHKYNPTEKAESESDLVAEIANVVQKKDLGRSDAREGAEHERGNAILVRDRIHKFHRLVSTLRPPESRVFSLQQPPPGEGTWEPEHTGDFHMEEALDWPGVYLLPGQVSGVALDPKNNLVIFHRGDHVWDGNSFDSKFVYQQIGLGPIEEDTILVIDPNNAAVLQSSGKNLFYLPHGLSIDKDGNYWVTDVALHQVFKLDPNNKEGPVLILGRSMQPGSDQNHFCQPTDVAVDPGTGAIYVSDGYCNSRIVQFSPSGKFITQWGEESSGSSPLPGQFTVPHSLALVPLLGQLCVADRENGRIQCFKTDTKEFVREIKHSSFGRNVFAISYIPGLLFAVNGKPHFGDQEPVQGFVMNFSNGEIIDIFKPVRKHFDMPHDIVASEDGTVYIGDAHTNTVWKFTLTEKLEHRSVKKAGIEVQEIKEAEAVVETKMENKPTSSELQKMQEKQKLIKEPGSGVPVVLITTLLVIPVVVLLAIAIFIRWKKSRAFGDSEHKLETSSGRVLGRFRGKGSGGLNLGNFFASRKGYSRKGFDRLSTEGSDQEKEDDGSESEEEYSAPLPALAPSSS
Question: With B1 as the molecule, how does the Km [10] read?
Answer: The Km was 15 µM.

Question: And the Km [11]?
Answer: Its Km is 330 µM.

Question: And the Km [12]?
Answer: The Km was 200 µM.
